Experimental findings from PubChem BioAssay AID328 (DTP/NCI, 2004) are described below.

Where “and” joins values, the source holds several entries; their conditions need not be identical. Equal values may be shown once. Toxic doses and inconclusive results are not listed.

The test deals with BDF1 mice, P388 leukemia ip, median survival T/C. In words: NCI In Vivo Anticancer Drug Screen. Data for tumor model P388 Leukemia (intraperitoneal) in B6D2F1 (BDF1) mice. The settings on record: endpoint: median survival time, higher = longer survival. The gist of the method:
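Each value expresses how treatment altered survival: treated-mouse outcome over vehicle-mouse outcome, both groups bearing the transplanted tumour.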

Where [1] appears, read: dose: 50.0 mg/kg/injection, schedule: Q01DX009 (ip), vehicle: saline with Tween-80.
Setting [2] is: dose: 100.0 mg/kg/injection, schedule: Q01DX009 (ip), vehicle: saline with Tween-80.
[3] abbreviates: dose: 200.0 mg/kg/injection, schedule: Q01DX009 (ip), vehicle: saline with Tween-80.
The mark [4] stands for this setting: dose: 100.0 mg/kg/injection, schedule: Q01DX009 (ip), vehicle: Klucel (hydroxypropylcellulose) (HPC).
Setting [5] is: dose: 200.0 mg/kg/injection, schedule: Q01DX009 (ip), vehicle: Klucel (hydroxypropylcellulose) (HPC).

As to `Clc1cccc(N=c2cc3oc4ccccc4nc-3cc2Nc2cccc(Cl)c2)c1`, the T/C (dose: 12.5 mg/kg/injection, schedule: Q01DX009 (ip), vehicle: saline with Tween-80) is 96 % of control; the T/C (dose: 25.0 mg/kg/injection, schedule: Q01DX009 (ip), vehicle: saline with Tween-80) was 99 % of control; the T/C under setting [1] was 93 % of control.

Regarding `Cc1cc2c(c3oc(C4(C)OC4C4OC4C)cc(=O)c13)C(=O)c1c(O)c(C3CC(C)(N(C)C)C(O)C(C)O3)cc(C3CC(N(C)C)C(O)C(C)O3)c1C2=O` (stereo unspecified), the T/C is 105 % of control (dose: 0.01 mg/kg/injection, schedule: Q01DX009 (oral), vehicle: saline); 105 % of control (dose: 0.03 mg/kg/injection, schedule: Q01DX009 (oral), vehicle: saline); 95 % of control (dose: 0.06 mg/kg/injection, schedule: Q01DX001 (oral), vehicle: saline); 110 % of control (dose: 0.06 mg/kg/injection, schedule: Q01DX009 (oral), vehicle: saline); 109 % of control (dose: 0.06 mg/kg/injection, schedule: Q01DX010 (ip), vehicle: saline); 155 % of control (dose: 0.12 mg/kg/injection, schedule: Q01DX001 (ip), vehicle: saline). In addition, the T/C was 104 % of control (dose: 0.12 mg/kg/injection, schedule: Q01DX001 (oral), vehicle: saline); 110 % of control (dose: 0.12 mg/kg/injection, schedule: Q01DX009 (oral), vehicle: saline); 190 % of control (dose: 0.24 mg/kg/injection, schedule: Q01DX001 (ip), vehicle: saline); 104 % of control (dose: 0.24 mg/kg/injection, schedule: Q01DX001 (oral), vehicle: saline); 200 % of control (dose: 0.48 mg/kg/injection, schedule: Q01DX001 (ip), vehicle: saline); 100 % of control (dose: 0.48 mg/kg/injection, schedule: Q01DX001 (oral), vehicle: saline). Besides, the T/C by setting is: (dose: 0.1 micrograms/kg/injection, schedule: Q01DX010 (ip), vehicle: carboxymethylcellulose (CMC)) 95 % of control; (dose: 0.1 micrograms/kg/injection, schedule: Q01DX010 (ip), vehicle: other) 113 % of control; (dose: 0.2 micrograms/kg/injection, schedule: Q01DX010 (ip), vehicle: carboxymethylcellulose (CMC)) 95 % of control; (dose: 0.2 micrograms/kg/injection, schedule: Q01DX010 (ip), vehicle: other) 118 % of control; (dose: 0.3 micrograms/kg/injection, schedule: Q01DX010 (ip), vehicle: saline) 100 % of control; (dose: 0.3 micrograms/kg/injection, schedule: Q01DX010 (ip), vehicle: steriod suspending solution) 95 % of control. For the same molecule, the T/C is, setting by setting: (dose: 0.5 micrograms/kg/injection, schedule: Q01DX010 (ip), vehicle: carboxymethylcellulose (CMC)) 104 % of control; (dose: 0.5 micrograms/kg/injection, schedule: Q01DX010 (ip), vehicle: other) 109 % of control; (dose: 0.5 micrograms/kg/injection, schedule: Q01DX010 (ip), vehicle: saline) 116 % of control; (dose: 0.6 micrograms/kg/injection, schedule: Q01DX010 (ip), vehicle: saline) 95 % of control; (dose: 0.6 micrograms/kg/injection, schedule: Q01DX010 (ip), vehicle: steriod suspending solution) 120 % of control; (dose: 1.0 micrograms/kg/injection, schedule: Q01DX010 (ip), vehicle: other) 109 % of control. The T/C is 120 % of control (dose: 1.0 micrograms/kg/injection, schedule: Q01DX010 (ip), vehicle: saline); 122 % of control (dose: 1.3 micrograms/kg/injection, schedule: Q01DX010 (ip), vehicle: saline); 113 % of control (dose: 2.0 micrograms/kg/injection, schedule: Q01DX010 (ip), vehicle: other); 118 % of control (dose: 4.0 micrograms/kg/injection, schedule: Q01DX010 (ip), vehicle: carboxymethylcellulose (CMC)); 159 % of control (dose: 4.0 micrograms/kg/injection, schedule: Q01DX010 (ip), vehicle: saline); 175 % of control (dose: 5.0 micrograms/kg/injection, schedule: Q01DX010 (ip), vehicle: carboxymethylcellulose (CMC)). Besides, the T/C reads like this: (dose: 5.0 micrograms/kg/injection, schedule: Q01DX010 (ip), vehicle: steriod suspending solution) 150 % of control; (dose: 6.0 micrograms/kg/injection, schedule: Q01DX009 (ip), vehicle: saline) 155 % of control; (dose: 8.0 micrograms/kg/injection, schedule: Q01DX010 (ip), vehicle: saline) 163 % of control; (dose: 10.0 micrograms/kg/injection, schedule: Q01DX010 (ip), vehicle: carboxymethylcellulose (CMC)) 190 % of control; (dose: 10.0 micrograms/kg/injection, schedule: Q01DX010 (ip), vehicle: steriod suspending solution) 160 % of control; (dose: 12.0 micrograms/kg/injection, schedule: Q01DX009 (ip), vehicle: saline) 170 % of control. Also, the T/C (dose: 16.0 micrograms/kg/injection, schedule: Q01DX010 (ip), vehicle: saline) is 118 % of control; the T/C (dose: 20.0 micrograms/kg/injection, schedule: Q01DX010 (ip), vehicle: saline) was 154 % of control; the T/C (dose: 20.0 micrograms/kg/injection, schedule: Q01DX010 (ip), vehicle: steriod suspending solution) was 180 % of control; the T/C (dose: 30.0 micrograms/kg/injection, schedule: Q01DX010 (ip), vehicle: saline) is 109 % of control; the T/C (dose: 32.0 micrograms/kg/injection, schedule: Q01DX010 (ip), vehicle: other) is 177 % of control; the T/C (dose: 60.0 micrograms/kg/injection, schedule: Q01DX010 (ip), vehicle: saline) was 86 % of control.

`CC(=O)Nc1ccc2nc3ccc(NC(C)=O)cc3[n+](-c3ccccc3)c2c1`: the T/C is 168 % of control (dose: 31.3 mg/kg/injection, schedule: Q01DX010 (ip), vehicle: saline); 172 % of control (dose: 62.5 mg/kg/injection, schedule: Q01DX010 (ip), vehicle: saline); 181 % of control (dose: 125.0 mg/kg/injection, schedule: Q01DX010 (ip), vehicle: saline); 150 % of control (dose: 250.0 mg/kg/injection, schedule: Q01DX010 (ip), vehicle: saline).

For `Cc1ccc(Sc2ccccc2C(C)(C)O)cc1`, the T/C is, setting by setting: under setting [1], 101 % of control; under setting [2], 101 % of control; under setting [3], 95 % of control.

With `O=NN(CCCl)C(=O)Nc1ccc2c3c(cccc13)-c1ccccc1-2`, the T/C was 156 % of control and 157 % of control (dose: 50.0 mg/kg/injection, schedule: Q01DX009 (ip), vehicle: Klucel (hydroxypropylcellulose) (HPC)); 156 % of control and 157 % of control under setting [4]; 161 % of control and 170 % of control under setting [5]; 93 % of control (dose: 400.0 mg/kg/injection, schedule: Q01DX009 (ip), vehicle: Klucel (hydroxypropylcellulose) (HPC)).

Consider `O=C1C2CCCCC1C(N1CCCC1)CC2` (stereo unspecified), for which the T/C reads like this: (dose: 100.0 mg/kg/injection, schedule: Q04DX003 (sc), vehicle: olive oil, sesame oil, peanut oil) 100 % of control; (dose: 200.0 mg/kg/injection, schedule: Q04DX003 (sc), vehicle: olive oil, sesame oil, peanut oil) 86 % of control; (dose: 400.0 mg/kg/injection, schedule: Q04DX003 (sc), vehicle: olive oil, sesame oil, peanut oil) 100 % of control.

As for `C#C[C@]1(O)CC[C@H]2[C@@H]3CCc4cc(O)ccc4[C@H]3CC[C@@]21C`, the T/C is 95 % of control under setting [4]; 104 % of control (dose: 100.0 mg/kg/injection, schedule: Q04DX003 (ip), vehicle: Klucel (hydroxypropylcellulose) (HPC)); 87 % of control under setting [5]; 104 % of control (dose: 200.0 mg/kg/injection, schedule: Q04DX003 (ip), vehicle: Klucel (hydroxypropylcellulose) (HPC)); 95 % of control (dose: 400.0 mg/kg/injection, schedule: Q04DX003 (ip), vehicle: Klucel (hydroxypropylcellulose) (HPC)).

Regarding `Cc1nc2cnn(C)c2nc1C`, the T/C (dose: 50.0 mg/kg/injection, schedule: Q04DX003 (ip), vehicle: saline) is 114 % of control; the T/C (dose: 100.0 mg/kg/injection, schedule: Q04DX003 (ip), vehicle: saline) was 113 % of control; the T/C (dose: 200.0 mg/kg/injection, schedule: Q04DX003 (ip), vehicle: saline) is 107 % of control; the T/C (dose: 400.0 mg/kg/injection, schedule: Q04DX003 (ip), vehicle: saline) was 88 % of control.

As for `c1ccc(Sc2cccc3ccccc23)cc1`, the T/C reads like this: under setting [2], 100 % of control; under setting [3], 104 % of control; (dose: 400.0 mg/kg/injection, schedule: Q01DX009 (ip), vehicle: saline with Tween-80) 104 % of control.
